The test system of data set [1] is C57BL/6J mice. Kind of data set: S107 chronic exercise model: treadmill run to exhaustion. Format: in vivo, mouse. How it is done:
Mice were allowed to recover for three days prior to the initiation of exercise. Standard food and water were provided ad libitum through the experiment.
Chronic Exercise Model: The daily swimming protocol consisted of twice-daily swimming sessions separated by a one-hour rest period. After an initial conditioning regimen lasting 5 days during which the swimming sessions were increased in 10 minute increments from 40 minutes each to 80 minutes each, the swimming sessions thereafter lasted 90 minutes each. A 30 cm wide by 30 cm long opaque acrylic tank was filled with tap water to a depth of at least 20 cm. Water was circulated and warmed to 32-34° C. using a separate reservoir with heating element, thermostat, and pump. 8 mice, balanced pair-wise with respect to genotype and/or treatment group, swam at any one time in the tank.
Treadmill performance: A Columbus Instruments (Columbus, Ohio) treadmill (Model: Exer-6M Treadmill with Treadmill Shock Detection Unit) with 6 lanes was used to run the mice. Mice were placed in their respective lanes with the shocking apparatus turned off and allowed to adjust to the surroundings for 10 minutes. The forward half of the treadmill was covered with aluminum foil to block out light and a desk lamp illuminated the shocking area at the rear of the treadmill. After the adjustment period, the treadmill was set to 10 meters/min, and the mice were trained to run with gentle prodding for 6 minutes. The electric current was then turned on, and the number of shocks delivered during the next two three minute intervals (training period) were recorded. The shock counter was then reset and visits to the shocking area and shocks delivered to each mouse were recorded at three-minute intervals until the end of the experiment. At regular intervals, the speed of the treadmill was ramped up from the initial 10 m/min to 24 m/min. The speed was increased no more than 2 m/min every 6 minutes. Task failure was defined when a mouse could not continue running despite gentle prodding.
Age and sex-matched WT mice were randomized to receive osmotic pumps containing either S107 or vehicle. […] Exercise capacity was assessed once a week by a level treadmill run to exhaustion during the nocturnal cycle of the mouse. The mice were not exercised on the same day as treadmill assessments. […] These studies are complicated by the training effect of repeated exercise which leads to improved performance due to enhanced musculature. Isometric force production was measured in EDL muscles in a tissue bath during field stimulation.

The next data set concerns the target T1, PKA-phosphorylated RyR2 (Homo sapiens, UniProt Q92736).
T1 construct: from tissue
Kind of data set: FKBP12.6 rebinding assay: FKBP12.6 binding to PKA-phosphorylated RyR2 in cardiac SR.

For data set [2], the system named is C57BL/6J mice. Kind of data set: S36 chronic exercise model: swimming velocity tracking and treadmill running. Format: in vivo, mouse. As for the experimental part: Drug Delivery: Eight-week-old, wild-type, weight-matched, C57BL/6J littermate mice were randomized to either S36 or vehicle treatment. On day −2, osmotic infusion pumps (Alzet Model 2004, 200 μl total volume, 0.25 μl/hr delivery, Durect, Cupertino, Calif.) filled with either 200 ul of PBS or 200 μl of S36 (10 μg/ul diluted in PBS) were implanted subcutaneously on the dorsal surface of the mice by a horizontal incision just behind the neck. Mice were allowed to recover for three days prior to the initiation of exercise. Standard food and water were provided ad libitum.
Exercise Protocols: Beginning on day 1, mice were exercised for three weeks by swimming 5 days/week and by running on a treadmill an additional 1 day/week.
Swimming Model: The daily swimming protocol consisted of swimming sessions twice-daily separated by one-hour rest periods. After an initial conditioning regimen lasting 5 days during which the swimming sessions were increased in 10 minute increments from 40 minutes each to 80 minutes each, the swimming sessions thereafter lasted 90 minutes each. A 30 cm wide by 30 cm long opaque acrylic tank was filled with tap water to a depth of at least 20 cm. Water was circulated and warmed to 32-34 degrees C. using a separate reservoir with heating element, thermostat, and pump. Compressed room air was bubbled from Tygon tubing with small needle holes placed at the bottom of the tank to agitate the water surface. 4 mice, matched pair-wise with respect to treatment group, swam at any one time in the tank.
In order to track the swimming activity of each individually identified mouse, a video tracking system was used (San Diego Instruments, San Diego, Calif.), which includes Sony CCD video recorder, DVD/Hard Drive, frame grabber card, and custom SMART 2.0 software with Social Behavior package capable of tracking up to 8 mice simultaneously under ideal conditions.) Mice were anesthetized by using 1.5% isoflurane in O2, and small, 0.75 cm, Velcro coins were sutured with 5-0 nylon suture to the scalp of each mouse. Plastic 1 cm colored dots, glued to the hook side of the Velcro, could be securely attached to the mouse and used for multiple subject tracking under appropriate lighting conditions. Each resultant mouse track in x,y, and time was analyzed and mean velocities, and distance swam over 2, 5, and 10 minute intervals was obtained.
Treadmill running: A Columbus Instruments (Columbus, Ohio) treadmill (Model: Exer-6M Treadmill with Treadmill Shock Detection Unit) with 6 lanes was used to run the mice. Mice were placed in their respective lanes at the lowest speed (7 meters/min) with the shocking apparatus turned off and allowed to adjust to the surroundings for 6 minutes. The forward half of the treadmill was covered with aluminum foil to block out light. A desk lamp illuminated the shocking area at the rear of the treadmill. After the adjustment period, the electric current was turned on, and the number of shocks delivered during the next two three minute intervals (training period) were recorded. The shock counter was then reset, the speed was increased to 10 m/min, and visits to the shocking area and shocks delivered to each mouse were recorded at three-minute intervals until the end of the experiment. At regular intervals, the speed of the treadmill was ramped up from the initial 10 m/min to as high as 36 m/min. The speed was increased no more than 2 m/min every 6 minutes. […]

Structures are written as SMILES.

Usually EC50 stands for the concentration giving half of the maximal effect. Read a high EC50 as a need for much substance.

T1 sequence (Q92736 whole entry): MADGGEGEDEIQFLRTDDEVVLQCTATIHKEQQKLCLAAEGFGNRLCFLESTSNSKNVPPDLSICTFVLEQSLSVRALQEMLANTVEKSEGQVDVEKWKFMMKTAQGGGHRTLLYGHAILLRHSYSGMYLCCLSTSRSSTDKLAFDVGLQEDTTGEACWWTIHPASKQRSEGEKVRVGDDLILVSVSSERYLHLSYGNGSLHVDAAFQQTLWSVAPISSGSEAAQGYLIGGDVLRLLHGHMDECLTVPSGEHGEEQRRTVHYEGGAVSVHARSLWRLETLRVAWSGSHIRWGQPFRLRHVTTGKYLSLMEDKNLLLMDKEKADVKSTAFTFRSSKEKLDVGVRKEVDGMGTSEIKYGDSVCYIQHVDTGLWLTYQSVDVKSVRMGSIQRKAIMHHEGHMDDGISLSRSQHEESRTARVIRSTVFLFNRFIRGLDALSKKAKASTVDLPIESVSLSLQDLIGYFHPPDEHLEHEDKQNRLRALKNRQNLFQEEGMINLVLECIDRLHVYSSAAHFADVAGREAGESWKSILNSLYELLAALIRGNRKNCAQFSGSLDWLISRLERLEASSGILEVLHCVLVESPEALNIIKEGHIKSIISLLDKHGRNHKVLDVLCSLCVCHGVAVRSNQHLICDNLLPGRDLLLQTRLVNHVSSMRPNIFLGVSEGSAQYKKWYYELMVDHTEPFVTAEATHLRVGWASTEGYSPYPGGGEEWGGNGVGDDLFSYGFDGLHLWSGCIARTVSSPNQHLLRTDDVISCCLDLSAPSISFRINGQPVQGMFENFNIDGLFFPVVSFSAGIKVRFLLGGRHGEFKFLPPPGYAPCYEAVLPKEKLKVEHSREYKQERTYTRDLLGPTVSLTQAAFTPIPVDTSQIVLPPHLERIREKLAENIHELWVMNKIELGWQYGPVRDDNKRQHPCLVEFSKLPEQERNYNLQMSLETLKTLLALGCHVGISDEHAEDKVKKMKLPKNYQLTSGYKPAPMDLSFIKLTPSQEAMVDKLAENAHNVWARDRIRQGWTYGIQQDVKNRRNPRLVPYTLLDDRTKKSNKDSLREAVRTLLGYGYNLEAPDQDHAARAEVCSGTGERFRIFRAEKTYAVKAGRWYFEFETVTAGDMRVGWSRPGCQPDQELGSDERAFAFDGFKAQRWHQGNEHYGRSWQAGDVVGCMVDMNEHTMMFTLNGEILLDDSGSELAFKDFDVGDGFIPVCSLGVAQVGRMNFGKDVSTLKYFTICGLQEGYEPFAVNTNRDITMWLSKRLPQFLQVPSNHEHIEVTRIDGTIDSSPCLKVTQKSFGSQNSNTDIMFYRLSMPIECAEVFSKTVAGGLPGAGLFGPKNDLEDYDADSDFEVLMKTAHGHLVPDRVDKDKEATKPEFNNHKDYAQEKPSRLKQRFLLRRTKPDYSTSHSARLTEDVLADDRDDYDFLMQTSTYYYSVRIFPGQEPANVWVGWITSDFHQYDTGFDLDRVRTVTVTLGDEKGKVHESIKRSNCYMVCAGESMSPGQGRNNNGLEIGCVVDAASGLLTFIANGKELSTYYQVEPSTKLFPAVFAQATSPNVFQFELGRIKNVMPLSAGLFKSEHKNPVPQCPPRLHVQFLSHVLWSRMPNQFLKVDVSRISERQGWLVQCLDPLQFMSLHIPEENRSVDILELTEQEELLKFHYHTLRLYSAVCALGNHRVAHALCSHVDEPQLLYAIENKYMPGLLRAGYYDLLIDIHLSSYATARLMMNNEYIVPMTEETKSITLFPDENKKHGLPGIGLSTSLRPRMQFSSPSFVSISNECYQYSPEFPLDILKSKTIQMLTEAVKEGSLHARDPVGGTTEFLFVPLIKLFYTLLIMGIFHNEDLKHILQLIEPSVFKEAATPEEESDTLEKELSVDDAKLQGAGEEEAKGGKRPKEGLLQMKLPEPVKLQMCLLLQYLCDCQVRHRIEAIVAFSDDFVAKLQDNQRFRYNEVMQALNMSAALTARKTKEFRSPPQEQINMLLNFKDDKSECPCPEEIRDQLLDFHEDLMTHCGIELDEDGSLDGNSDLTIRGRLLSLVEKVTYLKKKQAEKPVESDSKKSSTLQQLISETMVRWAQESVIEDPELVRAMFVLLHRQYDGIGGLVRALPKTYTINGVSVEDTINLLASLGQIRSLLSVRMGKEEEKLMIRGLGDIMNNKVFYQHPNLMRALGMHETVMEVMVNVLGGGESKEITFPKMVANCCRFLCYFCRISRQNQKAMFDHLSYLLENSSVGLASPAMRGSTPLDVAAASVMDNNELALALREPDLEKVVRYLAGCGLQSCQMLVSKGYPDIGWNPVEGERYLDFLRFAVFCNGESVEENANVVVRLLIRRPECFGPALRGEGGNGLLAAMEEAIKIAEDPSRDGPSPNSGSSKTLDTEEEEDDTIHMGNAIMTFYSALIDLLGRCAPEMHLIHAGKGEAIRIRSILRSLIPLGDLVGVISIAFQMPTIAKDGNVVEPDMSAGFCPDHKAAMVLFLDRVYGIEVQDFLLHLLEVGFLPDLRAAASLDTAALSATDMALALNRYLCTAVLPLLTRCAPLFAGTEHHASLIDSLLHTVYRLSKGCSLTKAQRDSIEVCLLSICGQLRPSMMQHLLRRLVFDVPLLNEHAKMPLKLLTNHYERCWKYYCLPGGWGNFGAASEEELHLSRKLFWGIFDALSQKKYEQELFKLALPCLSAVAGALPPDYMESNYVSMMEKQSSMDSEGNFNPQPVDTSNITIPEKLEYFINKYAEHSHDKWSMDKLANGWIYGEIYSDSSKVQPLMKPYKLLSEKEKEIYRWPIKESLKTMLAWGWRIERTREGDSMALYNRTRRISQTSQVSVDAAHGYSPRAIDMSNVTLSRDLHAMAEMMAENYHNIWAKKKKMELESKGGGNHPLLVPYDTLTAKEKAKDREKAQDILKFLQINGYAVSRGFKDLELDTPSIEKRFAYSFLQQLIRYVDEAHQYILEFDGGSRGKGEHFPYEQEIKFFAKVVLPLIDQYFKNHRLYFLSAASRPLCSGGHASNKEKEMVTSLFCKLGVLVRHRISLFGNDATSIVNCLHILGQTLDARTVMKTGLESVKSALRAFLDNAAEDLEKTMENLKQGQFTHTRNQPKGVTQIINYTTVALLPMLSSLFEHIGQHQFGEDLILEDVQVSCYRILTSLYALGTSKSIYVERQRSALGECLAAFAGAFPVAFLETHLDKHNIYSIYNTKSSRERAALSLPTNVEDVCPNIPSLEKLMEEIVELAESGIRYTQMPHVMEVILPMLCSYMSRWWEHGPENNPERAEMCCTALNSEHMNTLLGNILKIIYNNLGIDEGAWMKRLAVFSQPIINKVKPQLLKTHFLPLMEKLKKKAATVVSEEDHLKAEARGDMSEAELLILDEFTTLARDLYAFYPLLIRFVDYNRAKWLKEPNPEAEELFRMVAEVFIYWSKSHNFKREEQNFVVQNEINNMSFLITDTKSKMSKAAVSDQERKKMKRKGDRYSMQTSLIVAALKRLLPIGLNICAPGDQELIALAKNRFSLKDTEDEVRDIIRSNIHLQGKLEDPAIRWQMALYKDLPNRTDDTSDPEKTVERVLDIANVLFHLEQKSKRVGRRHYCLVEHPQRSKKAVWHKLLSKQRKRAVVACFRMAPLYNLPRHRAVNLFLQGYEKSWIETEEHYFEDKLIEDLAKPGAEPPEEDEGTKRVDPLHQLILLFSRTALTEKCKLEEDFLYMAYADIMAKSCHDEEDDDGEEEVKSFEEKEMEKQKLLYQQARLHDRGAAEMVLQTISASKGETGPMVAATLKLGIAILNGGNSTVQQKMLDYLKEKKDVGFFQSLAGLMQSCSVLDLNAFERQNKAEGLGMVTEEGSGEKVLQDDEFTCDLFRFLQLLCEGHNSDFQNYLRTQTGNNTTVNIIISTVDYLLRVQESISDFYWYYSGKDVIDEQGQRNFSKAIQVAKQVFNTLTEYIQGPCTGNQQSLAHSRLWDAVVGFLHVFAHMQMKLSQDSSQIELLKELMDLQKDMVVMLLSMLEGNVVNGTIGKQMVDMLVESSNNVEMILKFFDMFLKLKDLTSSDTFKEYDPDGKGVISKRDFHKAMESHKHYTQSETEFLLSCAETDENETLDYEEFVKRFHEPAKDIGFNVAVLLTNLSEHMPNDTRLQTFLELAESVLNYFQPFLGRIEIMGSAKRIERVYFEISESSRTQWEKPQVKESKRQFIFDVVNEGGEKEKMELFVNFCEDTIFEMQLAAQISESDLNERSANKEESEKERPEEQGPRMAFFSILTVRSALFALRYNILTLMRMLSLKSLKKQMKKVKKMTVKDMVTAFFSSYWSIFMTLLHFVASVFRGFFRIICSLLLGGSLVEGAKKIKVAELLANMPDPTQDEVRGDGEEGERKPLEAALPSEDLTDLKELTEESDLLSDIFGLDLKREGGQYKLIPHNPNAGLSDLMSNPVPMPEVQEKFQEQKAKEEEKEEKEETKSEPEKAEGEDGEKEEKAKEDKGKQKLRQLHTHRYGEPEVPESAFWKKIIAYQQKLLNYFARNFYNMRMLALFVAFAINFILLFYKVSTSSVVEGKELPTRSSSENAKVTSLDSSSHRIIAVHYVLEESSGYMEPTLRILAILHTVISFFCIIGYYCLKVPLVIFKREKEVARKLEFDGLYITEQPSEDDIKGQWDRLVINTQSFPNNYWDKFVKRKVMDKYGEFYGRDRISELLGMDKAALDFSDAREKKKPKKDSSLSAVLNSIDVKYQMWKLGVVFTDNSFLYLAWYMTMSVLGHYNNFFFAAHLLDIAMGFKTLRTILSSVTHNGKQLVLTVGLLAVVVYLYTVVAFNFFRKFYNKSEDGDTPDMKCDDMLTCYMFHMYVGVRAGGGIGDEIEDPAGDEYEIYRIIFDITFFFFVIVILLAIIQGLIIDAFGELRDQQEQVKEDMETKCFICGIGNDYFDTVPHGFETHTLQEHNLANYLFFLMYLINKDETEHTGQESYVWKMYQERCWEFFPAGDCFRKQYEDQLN
T1 sequence (P68106 whole entry partner): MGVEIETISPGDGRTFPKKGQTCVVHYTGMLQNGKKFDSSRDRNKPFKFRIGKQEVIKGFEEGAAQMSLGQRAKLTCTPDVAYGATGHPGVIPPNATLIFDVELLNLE

In the case of `COc1ccc2c(c1)CN(C)CCS2` [S107], the “acute effect on WT treadmill exercise performance” value in the data set with C57BL/6J mice [1] (2.5 ug/hr osmotic pump, WT mice) is recorded as “no acute effect”. The “treadmill exercise capacity (time to failure) vs vehicle” value in the data set on C57BL/6J mice [1] (Day 21, WT mice, p<0.05) was “relatively protected against a decline in treadmill exercise capacity”. In addition, the treadmill performance entry in the data set with C57BL/6J mice [1] (mice deficient in calstabin1) is “failed to improve treadmill performance”. Also, the body weight entry in the data set with C57BL/6J mice [1] (throughout trial) is recorded as “did not result in a change”.
Regarding `COc1ccc2c(c1)CN(C(=O)C(=O)O)CCS2` [S36], the “potency at increasing the binding of FKBP12.6 and RyR2 compared with JTV-519” value on PKA-phosphorylated RyR2 is reported as “more potent”. This compound also returned an EC50 at PKA-phosphorylated RyR2 (compound 0.5-1000 nM, Michaelis-Menten curve fitting) of 15 nM. Also, the results for the “swimming velocity vs PBS” value in the data set on C57BL/6J mice [2] (day 1 of exercise) and in the data set on C57BL/6J mice [2] (day 14) were “no substantial difference” and “no significant difference”, respectively. In the data set with C57BL/6J mice [2] (day 7 of exercise), the “swimming velocity and treadmill distance/fatigue time vs PBS” value is listed as “no substantial difference”. Besides, the “treadmill running performance vs PBS” value with C57BL/6J mice [2] (day 14) and in the data set on C57BL/6J mice [2] (day 16) was “trend toward improved performance” in each case.
